Holding throughout (type): cell-based, human
In series [1] the test system is HepG2 cells. Put plainly: Cellular cholesterol efflux toward apo A-I. How it is done: (§1) HepG2 (hepatocellular carcinoma) cells were growth in Eagle's minimum essential medium (EMEM). The medium was supplemented with 10% FBS, 100 units/ml penicillin, and 100 μg/ml streptomycin. Cells were cultured in 5% CO2 at 37° C. and were harvested once a week with trypsin-EDTA. For experiments, cells were trypsinized, seeded, and cultured at least for 3 days prior to the assays.
(§2) HepG2 cells were transfected with ADCY9, SREBP2, LDLr or scramble siRNA in the presence of Lipofectamine RNAiMAX in Opti-MEM for 72 h unless otherwise stated.
Cells were labeled in EMEM containing 2 μCi/ml [1,2-^3H]cholesterol plus 1% FBS for 24 h at 37° C. Then, cells were equilibrated with EMEM containing 0.2% BSA for 18 h at 37° C. with or without H89 or GSK-2033. An efflux assay was performed in the absence or presence of 10 μg/ml of apo A-I. At the end of the incubation, the medium was harvested and cells were solubilized. Medium and cells were counted for radioactivity in a […]. The percentage of efflux was calculated by subtracting the radioactive counts in the medium in the absence of cholesterol acceptors from the radioactive counts in the presence of acceptor and then dividing by the sum of the radioactive counts in the medium plus the cell fraction.

Another series relates to LDLr. Put plainly: Western blot of LDLr protein in HepG2 cells. The following applies: for LDLr protein expression in human HepG2 cells (% of siScramble): HepG2 transfected with siRNA, Western blot, actin loading control, n=8. How it is done: as §1, §2
(§3) For Western blotting, cells were washed with cold PBS and then scraped and lysed in ice-cold lysis buffer (50 mM Tris, pH 7.5, 150 mM NaCl, 1% Triton X-100, 0.1% SDS, 0.5% sodium deoxycholate, 1 mM PMSF, and protease inhibitor cocktail). Lysate was microcentrifugated for 20 min at 4° C. and supernatant was assessed for cell proteins. Proteins ([…]) were separated by sodium dodecyl sulfate-polyacrylamide gel electrophoresis (SDS-PAGE) followed by Western blotting to PVDF membrane.
Protein expression is represented as a percentage of the control, siScramble. n=8. Paired t-test: *=p≤0.05; **=p≤0.01; and ***=p≤0.001, relative to siScramble.
A general note: A western blot detects proteins with antibodies after separation by electrophoresis.

The next series relates to ABCA1. The experiment in a line: Western blot of ABCA1 protein in HepG2 cells. The note with it: HepG2, siAC9 plus 2 μM H89, 24 h. How it is done:
as §1, §2, §3

In series [2] the test system is HepG2 cells. Put plainly: 3H-CE-LDL cell association assay. The following applies: HepG2, siAC9 plus 2 μM H89, 24 h. How it is done:
as §1, §2

The subject of the next series is AC9. The experiment in a line: Western blot of AC9 protein after siRNA transfection of HepG2 cells. The following applies: HepG2 transfected with siRNA, actin loading control, n=8. How it is done: as §1, §2, §3
Results were obtained by Western blotting and actin was used as a loading control. Protein expression is represented as a percentage of the control, siScramble. n=8. Paired t-test: *=p≤0.05; **=p≤0.01; and ***=p≤0.001, relative to siScramble.

Setting [3] is: HepG2, siAC9 plus 2 μM H89, 24 h.

For `Cc1cc(C)c(S(=O)(=O)N(Cc2ccc(-c3cccc(S(C)(=O)=O)c3)cc2)Cc2ccc(C(F)(F)F)o2)c(C)c1` [GSK-2033], in the series with HepG2 cells [1] (HepG2, siAC9 plus 5 μM GSK-2033, 24 h), the “ABCA1-mediated cholesterol efflux, effect on siAC9-mediated increase” value is “significantly reduce”.

For the compound `O=S(=O)(NCCNC/C=C/c1ccc(Br)cc1)c1cccc2cnccc12` [H89], the “LDLr protein expression, effect on siAC9-mediated increase” value with LDLr (setting [3]) is recorded as “reversed”. Moreover, the “ABCA1 protein expression, effect on siAC9-mediated increase” value in the series with ABCA1 is listed as “reversed”. The “3H-CE-LDL association in siAC9-treated cells” value in the series with HepG2 cells [2] was “reduction”. The “cholesterol efflux in siAC9-treated cells” value in the series on HepG2 cells [1] (setting [3]) is recorded as “not”.

With `CC(C)c1c(C(=O)Nc2ccccc2)c(-c2ccccc2)c(-c2ccc(F)cc2)n1CC[C@@H](O)C[C@@H](O)CC(=O)O` [atorvastatin, reference compound], the “LDLr protein expression, combined treatment” value in the series on LDLr (HepG2, 300 μM exogenous cAMP plus 5 μM atorvastatin) is “increased”.

On to “ADCY9-1: siRNA, sense SEQ ID NO: 3 CGAAAUGGAAGAUGGGAAAUU, antisense SEQ ID NO: 4 UUUCCCAUCUUCCAUUUCGUU; targets ADCY9 mRNA Exon 2 (listed as RNA, chemistry not fully specified)”, for which, in the series with AC9, the “AC9 protein expression in human HepG2 cells (% of siScramble)” value (shortened to “AC9 protein expression … (% of siScramble)”) was 24% ***. Also, the “LDLr protein expression in human HepG2 cells (% of siScramble)” value (from here on “LDLr protein expression … (% of siScramble)”) with LDLr is reported as 131% **.

Take “ADCY9-2: siRNA, sense SEQ ID NO: 5 CGAAACAGGAAUAGAAGAAUU, antisense SEQ ID NO: 6 UUCUUCUAUUCCUGUUUCGUU; targets ADCY9 mRNA Exon 10 (listed as RNA, chemistry not fully specified)”: the “AC9 protein expression … (% of siScramble)” value with AC9 is listed as 16% ***. Moreover, the “LDLr protein expression … (% of siScramble)” value in the series on LDLr stood at 122% **.

As to “ADCY9-3: siRNA, sense SEQ ID NO: 7 AGGAAGAGGUCAUAAAGAAUU, antisense SEQ ID NO: 8 UUCUUUAUGACCUCUUCCUUU; targets ADCY9 mRNA Exon 5-6 (listed as RNA, chemistry not fully specified)”, the “AC9 protein expression … (% of siScramble)” value with AC9 was 17% ***. Also, the “LDLr protein expression … (% of siScramble)” value in the series with LDLr is listed as 126% *.

With “ADCY9-4: siRNA, sense SEQ ID NO: 9 GCACCAAGAUCCAGAGCAUUU, antisense SEQ ID NO: 10 AUGCUCUGGAUCUUGGUGCUU; targets ADCY9 mRNA Exon 10 (listed as RNA, chemistry not fully specified)”, the “AC9 protein expression … (% of siScramble)” value in the series with AC9 was found to be 15% ***. Moreover, in the series with LDLr, the “LDLr protein expression … (% of siScramble)” value was found to be 150% **.

As to “ADCY9-ID1039: siRNA, sense SEQ ID NO: 1 CCUGAUGAAAGAUUACUUUTT, antisense SEQ ID NO: 2 AAAGUAAUCUUUCAUCAGGCT; targets ADCY9 mRNA Exon 5 (chemistry not fully specified)”, in the series on AC9, the “AC9 protein expression … (% of siScramble)” value is recorded as 15% ***. In the series on LDLr, the “LDLr protein expression … (% of siScramble)” value was determined as 123% *.

The record behind these values is US20260043031A1, “COMPOSITIONS AND METHODS FOR INHIBITING ADENYLATE CYCLASE 9 (AC9)” (INSTITUT DE CARDIOLOGIE DE MONTRÉAL, priority 2022, published 2026).
